Assay results: patent US3997506A (priority 1974, dated 1976)
Read-outs that look alike come from different tables or passages of the source.

Assays:
in vitro = format: cell-based, human; settings: human, leucocytes, Culture II, read-out: % of dead cells
Method: (§1) The cytotoxicity has been investigated on human leucocytes by means of the viability test with Trypan blue.
(§2) a. In a first experimentation cultures of leucocytes of a voluntary […] were prepared and caused to undergo incubation with phytohemagglutinin (PHA) and with different concentrations of colchicine or of its derivative (C1 = 2.5 μg/ml of culture, C3 = 10 μg/ml, C5 = 30 μg/ml, C6 = 50 μg/ml). Leucocytes only containing PHA served as controls.
(§3) After 3, 42, 68 and 72 hours of incubation a sample of each culture was contacted by a drop of Trypan blue and laid on a slide of a microscope. Then took place the counting of the dead cells (those with assumed an […] colour) and of all the cells present on the slide in order to obtain the ratio of the number of dead cells to the total number of cells. The results expressed as a rate in per cent are shown in the accompanying table 8.
(§4) b. After the experimentation which has just been described, the study of cytotoxicity has been continued with two other samples of human leucocytes still by means of the viability test with Trypan blue.
(§5) C1 = 2.5 μg/ml of culture
(§6) C6 = 50 μg/ml of culture;
(§7) and for the carboxy-1-adamantane fraction to:
(§8) C3 = 4.5 μg/ml of culture
(§9) C6 = 22.5 μg/ml of culture.
(§10) Leucocytes only containing phytohemagglutinin and others containing phytohemagglutinin and 50 μl of methanol served as controls.
(§11) The percentage of dead cells was determined after different numbers of hours of incubation.

human leucocytes [1] = experiment: in vitro; format: cell-based; settings: Cultures I and II
Method: as §1, §2, §3, §4, §5, §6, §7, §8, §9, §10, §11

human leucocytes [2] = settings: Table 11; for Count of leucocytes after 72 hours: Culture II
[3] = carboxy-1-adamantane C3 = 4.5 μg/ml
[4] = carboxy-1-adamantane C6 = 22.5 μg/ml

`O=C(O)C12CC3CC(CC(C3)C1)C2` [carboxy-1-adamantane] showed a cytotoxicity at 23 h (in vitro; [3]) of 18%, a cytotoxicity at 23 h (in vitro; [4]) of 14% and a cytotoxicity at 46 h (in vitro; [3]) of 12%. For the same compound, the cytotoxicity at 46 h (in vitro; [4]) was 10%, the cytotoxicity at 72 h (in vitro; [3]) was 25% and the cytotoxicity at 72 h (in vitro; [4]) was 25%. The “cytotoxicity, cultures I and II (in words)” value (human leucocytes [1]) was “no effect until 46 hours of incubation”, the “Count of leucocytes after 72 hours” value (human leucocytes [2]; [3]) was 215,000 and the “Count of leucocytes after 72 hours” value (human leucocytes [2]; [4]) was 230,000. The “number of leucocytes in absence or presence of substance (in words)” value (human leucocytes [2]; very approximative) was “remain substantially the same”.
